# pEC50, pIC50, pKi: −log10 of the molar value. Calls of active or inactive are those of the source. No cut-off for these calls is given here.
# Assays:
# [1] = biological target: cAMP and cAMP-inhibited cGMP 3',5'-cyclic phosphodiesterase 10A (Homo sapiens, UniProt Q9Y233); assay: Inhibition of PDE10A (unknown origin) by IMAP assay
# [2] = Clearance in rat; type: ADME, organism-based; conditions: in vivo
# Homo sapiens = species: Homo sapiens; assay: Selectivity for PDE10A (unknown origin) over PDE (unknown origin)
# Cytochrome P450 2C9 = Cytochrome P450 2C9 (Homo sapiens, UniProt P11712); assay: Inhibition of CYP2C9 (unknown origin); type: ADME
# Cytochrome P450 2C9, sequence (P11712 whole entry): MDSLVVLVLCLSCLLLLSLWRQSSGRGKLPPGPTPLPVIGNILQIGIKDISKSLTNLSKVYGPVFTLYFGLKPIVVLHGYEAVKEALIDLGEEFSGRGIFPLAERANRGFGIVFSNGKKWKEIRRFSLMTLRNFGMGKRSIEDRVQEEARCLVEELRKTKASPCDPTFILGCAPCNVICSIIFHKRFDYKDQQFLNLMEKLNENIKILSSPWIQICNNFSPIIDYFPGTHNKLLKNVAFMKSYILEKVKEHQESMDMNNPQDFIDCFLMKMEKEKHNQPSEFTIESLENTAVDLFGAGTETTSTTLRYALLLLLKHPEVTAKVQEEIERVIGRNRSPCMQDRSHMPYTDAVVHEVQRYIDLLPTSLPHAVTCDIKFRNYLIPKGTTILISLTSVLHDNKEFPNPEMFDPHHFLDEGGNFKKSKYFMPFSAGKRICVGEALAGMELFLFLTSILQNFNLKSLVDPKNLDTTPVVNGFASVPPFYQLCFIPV
# [3] = biological target: Voltage-gated inwardly rectifying potassium channel KCNH2 (Homo sapiens, UniProt Q12809); assay: Inhibition of MK-499 binding to human ERG
# Voltage-gated inwardly rectifying potassium channel KCNH2, sequence (Q12809 whole entry): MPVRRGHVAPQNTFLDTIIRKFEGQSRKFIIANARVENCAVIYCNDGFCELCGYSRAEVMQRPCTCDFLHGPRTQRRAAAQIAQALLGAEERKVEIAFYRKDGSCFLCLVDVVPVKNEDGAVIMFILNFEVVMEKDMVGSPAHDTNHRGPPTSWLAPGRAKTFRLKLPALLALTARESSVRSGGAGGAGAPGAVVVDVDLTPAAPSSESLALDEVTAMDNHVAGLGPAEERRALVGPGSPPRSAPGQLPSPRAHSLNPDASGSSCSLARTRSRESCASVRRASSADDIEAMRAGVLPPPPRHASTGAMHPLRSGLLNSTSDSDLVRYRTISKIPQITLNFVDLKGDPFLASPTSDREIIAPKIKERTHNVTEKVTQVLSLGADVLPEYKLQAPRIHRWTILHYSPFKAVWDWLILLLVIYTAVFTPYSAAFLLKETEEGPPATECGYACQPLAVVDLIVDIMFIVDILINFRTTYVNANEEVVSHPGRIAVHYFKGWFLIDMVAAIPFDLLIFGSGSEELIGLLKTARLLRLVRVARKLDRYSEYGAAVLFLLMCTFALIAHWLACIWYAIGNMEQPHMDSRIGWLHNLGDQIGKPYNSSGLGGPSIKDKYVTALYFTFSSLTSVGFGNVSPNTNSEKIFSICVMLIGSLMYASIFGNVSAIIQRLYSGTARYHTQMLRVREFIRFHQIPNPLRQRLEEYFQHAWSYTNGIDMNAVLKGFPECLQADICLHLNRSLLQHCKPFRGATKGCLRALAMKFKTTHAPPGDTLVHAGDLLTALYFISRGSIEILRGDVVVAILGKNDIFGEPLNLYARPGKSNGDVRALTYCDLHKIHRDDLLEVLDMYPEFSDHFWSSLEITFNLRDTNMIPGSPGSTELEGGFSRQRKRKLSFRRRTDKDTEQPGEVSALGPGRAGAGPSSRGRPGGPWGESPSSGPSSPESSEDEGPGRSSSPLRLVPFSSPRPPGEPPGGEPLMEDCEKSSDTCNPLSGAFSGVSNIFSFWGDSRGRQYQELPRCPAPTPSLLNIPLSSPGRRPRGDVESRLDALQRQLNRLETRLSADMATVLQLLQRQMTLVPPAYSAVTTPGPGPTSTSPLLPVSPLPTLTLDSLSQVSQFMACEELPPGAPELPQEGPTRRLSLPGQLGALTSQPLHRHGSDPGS
# [4] = biological target: T1, Nuclear receptor subfamily 1 group I member 2 (Homo sapiens, UniProt O75469); assay: Activation of PXR (unknown origin); type: ADME
# T1 sequence (O75469 whole entry): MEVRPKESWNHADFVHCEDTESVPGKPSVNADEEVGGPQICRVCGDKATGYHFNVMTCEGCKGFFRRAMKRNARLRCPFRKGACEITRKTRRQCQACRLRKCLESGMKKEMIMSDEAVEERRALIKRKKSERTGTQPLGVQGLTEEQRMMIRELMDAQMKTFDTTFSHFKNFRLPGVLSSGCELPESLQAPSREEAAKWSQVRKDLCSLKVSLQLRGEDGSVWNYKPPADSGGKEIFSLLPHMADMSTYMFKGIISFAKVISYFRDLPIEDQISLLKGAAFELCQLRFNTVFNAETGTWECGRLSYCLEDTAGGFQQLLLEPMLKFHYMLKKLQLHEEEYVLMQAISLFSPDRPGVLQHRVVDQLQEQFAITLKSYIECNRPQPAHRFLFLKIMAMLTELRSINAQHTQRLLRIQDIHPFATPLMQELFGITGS
# [5] = Plasma protein binding in rat; type: ADME, cell-free; conditions: read-out: PPB (converted)
# [6] = Aqueous solubility of the compound at pH 7; type: physicochemical
# Cytochrome P450 3A4 [7] = biological target: T2, Cytochrome P450 3A4 (Homo sapiens, UniProt P08684); assay: Inhibition of CYP3A4 (unknown origin); type: ADME
# T2 sequence (P08684 whole entry): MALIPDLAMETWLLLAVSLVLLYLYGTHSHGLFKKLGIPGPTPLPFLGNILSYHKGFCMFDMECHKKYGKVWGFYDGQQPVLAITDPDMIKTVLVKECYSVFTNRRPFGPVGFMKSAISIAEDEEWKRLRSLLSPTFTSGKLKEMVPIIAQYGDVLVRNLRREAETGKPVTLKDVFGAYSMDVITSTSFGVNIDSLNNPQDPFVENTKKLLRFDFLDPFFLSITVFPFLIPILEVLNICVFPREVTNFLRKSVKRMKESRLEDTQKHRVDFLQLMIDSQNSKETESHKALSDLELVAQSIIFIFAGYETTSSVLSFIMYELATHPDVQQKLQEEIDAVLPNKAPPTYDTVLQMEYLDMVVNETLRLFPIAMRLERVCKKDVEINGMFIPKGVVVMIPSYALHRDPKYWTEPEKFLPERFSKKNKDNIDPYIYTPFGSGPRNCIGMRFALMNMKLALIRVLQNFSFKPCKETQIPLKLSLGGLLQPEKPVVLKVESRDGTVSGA
# [8] = Plasma clearance in iv dosed Wistar Hanover rat; type: ADME, organism-based
# P-gp [9] = assay: Substrate activity at human P-gp assessed as efflux ratio of permeability across basolateral to apical over apical to basolateral side; type: ADME; conditions: not told
# Rhesus monkey [10] = assay: Potency index, ratio of THPP-1 Occ50 to compound Occ50 for in-vivo occupancy at PDE10A in rhesus monkey assessed as inhibition of [11C]MK-8193 binding; type: functional, Macaca mulatta
# [11] = Plasma clearance in iv dosed rhesus monkey; type: ADME, organism-based, Macaca mulatta
# [12] = Plasma protein binding in iv dosed rhesus monkey; type: ADME, organism-based, Macaca mulatta; conditions: read-out: PPB (converted)
# Rhesus monkey [13] = assay: In-vivo occupancy at PDE10A in rhesus monkey assessed as inhibition of [11C]MK-8193 binding; type: functional, Macaca mulatta
# [14] = Plasma clearance in iv dosed beagle dog; type: ADME, organism-based, Canis lupus familiaris
# [15] = Oral bioavailability in Wistar Hanover rat; type: ADME, organism-based; conditions: in vivo
# [16] = Inhibition of platelet aggregation factor (unknown origin); design: species or system Homo sapiens
# Rattus norvegicus [17] = species: Rattus norvegicus; assay: Toxicity in rat assessed as decrease in body weight gain after 7 days; type: organism-based; conditions: in vivo, 168 h
# [18] = Terminal half life in iv dosed rhesus monkey; type: ADME, organism-based, Macaca mulatta; conditions: in vivo, read-out: beta t1/2 (converted)
# Rattus norvegicus [19] = assay: Toxicity in rat assessed as influence on circulating prolactin level up to 30 mg/kg, po; type: organism-based; conditions: in vivo
# Salmonella typhimurium = assay: Mutagenicity in Salmonella typhimurium up to 5000 ug/plate by 5-strain Ames test; type: toxicity, organism-based; conditions: salmonella enterica subsp. enterica serovar typhimurium
# Rattus norvegicus [20] = assay: Anti-psychotic activity in rat assessed as plasma concentration needed to attenuate MK-801-induced hyperlocomotion at 1.5 mg/kg, po; type: functional
# Rattus norvegicus [21] = species: Rattus norvegicus; assay: Toxicity in rat assessed as lean body mass after 7 days; type: organism-based; conditions: in vivo, 168 h
# P-gp [22] = assay: Substrate activity at rat P-gp assessed as efflux ratio of permeability across basolateral to apical over apical to basolateral side; type: ADME; conditions: not told
# [23] = Lipophilicity, log D of the compound at pH 7 by HPLC method; type: physicochemical; conditions: buffer
# Cytochrome P450 3A4 [24] = biological target: T2, Cytochrome P450 3A4; assay: Time dependent inhibition of CYP3A4 (unknown origin); type: ADME
# Rattus norvegicus [25] = assay: Toxicity in rat up to 250 mg/kg after 7 days; type: organism-based; conditions: in vivo, 168 h
# [26] = Terminal half life in iv dosed Wistar Hanover rat; type: ADME, organism-based; conditions: in vivo, read-out: beta t1/2 (converted)
# Rattus norvegicus [27] = species: Rattus norvegicus; assay: Toxicity in rat assessed as decrease in total body fat after 7 days; type: organism-based; conditions: in vivo, 168 h
# [28] = Oral bioavailability in rhesus monkey; type: ADME, organism-based, Macaca mulatta; conditions: in vivo
# Rattus norvegicus [29] = assay: In vivo inhibition of PDE10A in rat striatum assessed as increase in cGMP level at >3 mg/kg, po after 2 hrs relative to control; type: functional
# [30] = Plasma protein binding in iv dosed human; type: ADME, organism-based; conditions: read-out: PPB (converted)
# [31] = Plasma protein binding in iv dosed beagle dog; type: ADME, organism-based, Canis lupus familiaris; conditions: read-out: PPB (converted)
# [32] = Apparent passive permeability of the compound; type: physicochemical; conditions: not told
# Rattus norvegicus [33] = assay: Cardiotoxicity in iv dosed rat; type: toxicity, organism-based; conditions: in vivo
# [34] = Plasma protein binding in iv dosed Wistar Hanover rat; type: ADME, organism-based; conditions: read-out: PPB (converted)
# Rattus norvegicus [35] = assay: Cognition enhancing activity in rat assessed as increase in episodic like memory up to 1.5 mg/kg, po by novel object recognition assay; type: functional, organism-based
# Rattus norvegicus [36] = assay: Toxicity in rat assessed as induction of catalepsy up to 30 mg/kg, po; type: organism-based; conditions: in vivo
# Cavia porcellus = species: Cavia porcellus; assay: Toxicity in guinea pig; type: organism-based; conditions: in vivo
# Rattus norvegicus [37] = species: Rattus norvegicus; assay: Anti-psychotic activity in rat assessed as reversal of MK-801-induced prepulse inhibition; type: functional, organism-based
# [38] = Terminal half life in iv dosed beagle dog; type: ADME, organism-based, Canis lupus familiaris; conditions: in vivo, read-out: beta t1/2 (converted)
# [39] = Oral bioavailability in beagle dog; type: ADME, organism-based, Canis lupus familiaris; conditions: in vivo
# Cytochrome P450 2D6 = Cytochrome P450 2D6 (Homo sapiens, UniProt P10635); assay: Inhibition of CYP2D6 (unknown origin); type: ADME
# Cytochrome P450 2D6, sequence (P10635 whole entry): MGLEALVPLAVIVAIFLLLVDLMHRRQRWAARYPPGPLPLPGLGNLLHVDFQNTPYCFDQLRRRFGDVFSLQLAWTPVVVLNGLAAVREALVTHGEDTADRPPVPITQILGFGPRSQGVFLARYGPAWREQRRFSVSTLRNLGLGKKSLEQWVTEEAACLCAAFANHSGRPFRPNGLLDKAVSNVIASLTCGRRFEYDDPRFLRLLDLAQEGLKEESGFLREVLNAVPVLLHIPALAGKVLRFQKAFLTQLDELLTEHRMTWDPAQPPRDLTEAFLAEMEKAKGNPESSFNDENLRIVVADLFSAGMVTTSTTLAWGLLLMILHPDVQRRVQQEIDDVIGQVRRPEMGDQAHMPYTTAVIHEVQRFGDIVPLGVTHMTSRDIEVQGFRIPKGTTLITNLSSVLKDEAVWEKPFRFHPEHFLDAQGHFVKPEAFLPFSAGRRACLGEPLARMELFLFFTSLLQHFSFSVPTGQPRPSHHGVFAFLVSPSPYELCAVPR
# cAMP and cAMP-inhibited cGMP 3',5'-cyclic phosphodiesterase 10A, sequence (Q9Y233 whole entry): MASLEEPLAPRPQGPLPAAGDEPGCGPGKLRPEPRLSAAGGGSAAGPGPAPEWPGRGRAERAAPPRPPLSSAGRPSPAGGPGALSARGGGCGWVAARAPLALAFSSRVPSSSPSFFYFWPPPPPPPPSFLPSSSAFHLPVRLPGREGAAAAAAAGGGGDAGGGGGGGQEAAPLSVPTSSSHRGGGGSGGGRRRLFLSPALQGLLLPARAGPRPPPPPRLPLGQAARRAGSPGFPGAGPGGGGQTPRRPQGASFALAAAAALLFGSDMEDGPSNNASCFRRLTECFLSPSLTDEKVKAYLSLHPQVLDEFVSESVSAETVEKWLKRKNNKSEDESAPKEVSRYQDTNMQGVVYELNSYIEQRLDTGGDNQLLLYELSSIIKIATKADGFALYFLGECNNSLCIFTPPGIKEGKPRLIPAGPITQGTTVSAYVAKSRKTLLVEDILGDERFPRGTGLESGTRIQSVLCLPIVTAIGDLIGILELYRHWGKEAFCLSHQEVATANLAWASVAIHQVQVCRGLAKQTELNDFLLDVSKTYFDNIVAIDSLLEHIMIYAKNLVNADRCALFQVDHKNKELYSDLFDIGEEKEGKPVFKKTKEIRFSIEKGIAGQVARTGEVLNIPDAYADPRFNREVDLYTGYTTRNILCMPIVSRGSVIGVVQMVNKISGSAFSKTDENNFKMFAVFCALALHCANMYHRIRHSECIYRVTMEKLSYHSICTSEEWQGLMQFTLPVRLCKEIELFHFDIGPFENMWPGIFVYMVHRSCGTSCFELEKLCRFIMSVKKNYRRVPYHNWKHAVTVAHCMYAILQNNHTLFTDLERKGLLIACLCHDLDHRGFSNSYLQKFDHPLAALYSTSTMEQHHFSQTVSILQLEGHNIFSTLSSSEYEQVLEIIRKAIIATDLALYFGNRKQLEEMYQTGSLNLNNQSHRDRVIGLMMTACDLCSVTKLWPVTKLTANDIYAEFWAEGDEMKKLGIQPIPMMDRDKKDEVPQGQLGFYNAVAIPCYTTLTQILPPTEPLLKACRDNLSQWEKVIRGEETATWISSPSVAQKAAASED
compound,measurement,setting,value
Cc1nc(C)c(CNc2nc(NCC(C)(C)Cc3ccccn3)nc(Cl)c2C)s1,pKi,[1],7.72
Cc1nc(C)c(CNc2nc(CCCOc3ccccn3)nc(Cl)c2C)s1,pKi,[1],8.51
COc1ccnc(C2CC2COc2nc(Cl)c(C)c(NCc3sc(C)nc3C)n2)c1 (racemic),pKi,[1],11.00
Cc1ccnc(C2CC2COc2nc(Cl)c(C)c(NCc3sc(C)nc3C)n2)c1 (centres undefined),pKi,[1],11.00
Cc1nc(C)c(CNc2nc(OCC3CC3c3ccncc3)nc(Cl)c2C)s1 (centres undefined),pKi,[1],8.08
Cc1nc(C)c(CNc2nc(NCCCc3ccccn3)nc(Cl)c2C)s1,pKi,[1],8.39
Cc1nc(C)c(CNc2nc(OCC3CC3c3cncn3C)nc(Cl)c2C)s1 (centres undefined),pKi,[1],7.69
Cc1nc(C)c(CNc2nc(OCC3CC3C3CCCN3C)nc(Cl)c2C)s1 (racemic; form 2),pKi,[1],7.27
Cc1c(Cl)nc(OC[C@H]2C[C@@H]2c2ccccn2)nc1NCc1cnn(C)c1,clearance,[2],29 mL/min/kg
same,Selectivity ratio,Homo sapiens,> 2500
same,pIC50,Cytochrome P450 2C9,5.28
same,INH,[3],> 60 µM
same,pEC50,[4],5.25
same,fraction unbound,[5],0.01
same,solubility,[6],162 µM
same,pIC50,Cytochrome P450 3A4 [7],5.42
Cc1nc(C)c(CNc2nc(OC[C@H]3C[C@@H]3c3ccccn3)nc(Cl)c2C)s1 (racemic),pKi,[1],10.15
Cc1nc(C)c(CNc2nc(CCC#Cc3ccccn3)nc(Cl)c2C)s1,pKi,[1],8.96
Cc1nc(C)c(CNc2nc(OCC3CC3c3ncccn3)nc(Cl)c2C)s1 (racemic),pKi,[1],8.44
Cc1nc(C)c(CNc2nc(OCC3CC3c3ccc(C#N)cn3)nc(Cl)c2C)s1 (racemic),pKi,[1],8.85
Cc1nc(C)c(CNc2nc(OCC#Cc3ccccn3)nc(Cl)c2C)s1,pKi,[1],8.51
Cc1nc(C)c(CNc2cc(C3CC3)nc3ccnn23)s1,INH,[3],52 µM
same,pEC50,[4],< 3.60
same,fraction unbound,[5],0.08
same,solubility,[6],196 µM
same,pIC50,Cytochrome P450 3A4 [7],< 4.30
Cc1nc(C)c(CNc2nc(OCCCc3ccc4ccccc4n3)nc(Cl)c2C)s1,clearance,[8],60 mL/min/kg
same,INH,[3],3.8 µM
same,pEC50,[4],5.64
Cn1cc(CNc2cc(OC[C@H]3C[C@@H]3c3ccccn3)nc3ccnn23)cn1,efflux ratio,P-gp [9],0.6
same,Ratio,Rhesus monkey [10],2
same,clearance,[11],8.2 mL/min/kg
same,clearance,[8],21 mL/min/kg
same,fraction unbound,[12],0.03
same,Occ50,Rhesus monkey [13],1.1 µM
same,clearance,[14],3.9 mL/min/kg
same,Selectivity ratio,Homo sapiens,> 5800
same,bioavailability,[15],41%
same,pIC50,[16],5.66
same,Activity,Rattus norvegicus [17],Toxic
same,half-life,[18],2.8 h
same,Activity,Rattus norvegicus [19],Non-toxic
same,Activity,Salmonella typhimurium,Non-toxic
same,Activity,Rattus norvegicus [20],130 nM
same,Activity,Rattus norvegicus [21],Toxic
same,efflux ratio,P-gp [22],0.7
same,logD,[23],2
same,TDI,Cytochrome P450 3A4 [24],Not Active
same,Activity,Rattus norvegicus [25],Non-toxic
same,half-life,[26],4.9 h
same,Activity,Rattus norvegicus [27],Toxic
same,bioavailability,[28],46%
same,inhibition (INH),Rattus norvegicus [29],>150%
same,fraction unbound,[30],0.07
same,fraction unbound,[31],0.06
same,Papp,[32],36 ×10⁻⁶ cm/s
same,pKi,[1],9.64
same,INH,[3],> 60 µM
same,pEC50,[4],< 4.60
same,Activity,Rattus norvegicus [33],Non-toxic
same,fraction unbound,[34],0.09
same,Activity,Rattus norvegicus [35],Active
same,Activity,Rattus norvegicus [36],Non-toxic
same,Activity,Cavia porcellus,Non-toxic
same,pIC50,Cytochrome P450 3A4 [7],< 4.30
same,Activity,Rattus norvegicus [37],Dose-dependent effect
same,half-life,[38],8.7 h
same,bioavailability,[39],63%
Clc1cc(Cl)n2nccc2n1,pKi,[1],4.62
same,solubility,[6],> 500 µM
Cc1nc(C)c(CNc2nc(OCC3CC3c3cn(C)cn3)nc(Cl)c2C)s1 (racemic),pKi,[1],10.70
Cc1nc(C)c(CNc2nc(OC[C@@H]3C[C@H]3c3ccccn3)nc(Cl)c2C)s1,pKi,[1],8.07
Cc1nc(C)c(CNc2nc(OCC3CC3c3ccc4ccccc4n3)nc(Cl)c2C)s1 (racemic),pKi,[1],11.00
Cn1cc(-c2ccncc2)c(-c2ccc(OCc3ccc4ccccc4n3)cc2)n1 [MARDEPODECT],solubility,[6],4 µM
Cc1nc(C)c(CNc2nc(OCC3CC3c3ccc4ncccc4n3)nc(Cl)c2C)s1 (racemic),pKi,[1],10.70
Cc1nc(C)c(CNc2nc(OCC3CC3c3cc4ccccn4n3)nc(Cl)c2C)s1 (racemic),pKi,[1],11.22
Cc1nc(C)c(CNc2nc(CCCCc3ccccn3)nc(Cl)c2C)s1,pKi,[1],9.40
Cc1nc(C)c(CNc2nc(OC[C@H]3C[C@H]3c3ccccn3)nc(Cl)c2C)s1 (racemic),pKi,[1],7.81
Cc1c(Cl)nc(C2CC2)nc1Cl,solubility,[6],150 µM
Cc1nc(C)c(CNc2nc(OCC3CC3C3CCCN3C)nc(Cl)c2C)s1 (racemic; form 1),pKi,[1],6.99
Cc1nc(C)c(CNc2nc(OCCCc3ccccn3)nc(Cl)c2C)s1,pKi,[1],8.96
Cc1nc(C)c(CNc2cc(Cl)nc3ccnn23)s1,pKi,[1],7.24
Cc1nc(C)c(CNc2nc(OC[C@H]3C[C@@H]3c3ccccn3)nc(Cl)c2C)s1,pKi,[1],10.52
Cc1nc(C)c(CNc2nc(C3CC3)nc(Cl)c2C)s1,pEC50,[4],4.72
same,solubility,[6],2 µM
same,fraction unbound,[34],0.015
same,pIC50,Cytochrome P450 2D6,5.09
same,pIC50,Cytochrome P450 3A4 [7],4.77
Cc1nc(C)c(CNc2nc(CC[C@H]3C[C@@H]3c3ccccn3)nc(Cl)c2C)s1 (racemic),pKi,[1],8.77

# Reference: ChEMBL document CHEMBL3745609, “Discovery of pyrazolopyrimidine phosphodiesterase 10A inhibitors for the treatment of schizophrenia” (Bioorg Med Chem Lett, 2016)
